According to patent US8710010B2, “Peptides useful in the treatment and/or care of skin, mucous membranes, scalp and/or hair and their use in cosmetic or pharmaceutical compositions” (Lipotec, S.A., priority 2008, dated 2014):
Where a SMILES comes first, the peptide text is derived from it. [ ]: non-standard residue; d: D form. Dap = NC[C@H](N)C(=O)O

What was measured:
[1] = Scavenging assay of 2-nonenal; assay type: biochemical; settings: 2 mM peptide in 10 mM PBS mixed with equal volume of 100 μM aldehyde in acetonitrile, 37° C., 24 h, HPLC of remaining aldehyde
Procedure: Scavenging assay of 2-nonenal.
(§1) A solution was prepared from peptides in a 10 mM PBS buffer at a concentration of 2 mM, as well as a solution of the aldehyde in acetonitrile at a concentration of 100 μM. Equal volumes of peptide solutions and aldehyde were mixed and left to react at 37° C. for 24 h. The scavenging efficiency of the RCS was measured by HPLC analysis of the remaining aldehyde content in the reaction mixture.

[2] = Scavenging assay of 4-hydroxy-2-nonenal; assay type: biochemical; settings: 2 mM peptide in 10 mM PBS mixed with equal volume of 100 μM aldehyde in acetonitrile, 37° C., 24 h, HPLC of remaining aldehyde
Procedure: Scavenging assay of 4-hydroxy-2-nonenal.
as §1, with “mixed and were left to” for “mixed and left to”

[3] = Reduction of the odor emitted by aldehyde 2-nonenal (sniff test); settings: 0.05% peptide in phosphate buffer 10 mM pH 7-7.5 added to equal volume of 0.00089% 2-nonenal in acetonitrile, odor at time zero and 24 h, panel of 3 experts
Procedure: Reduction of the Odor Emitted by Aldehyde 2-nonenal
We evaluated the reduction of the odor given off by aldehyde 2-nonenal after the addition of a solution containing 0.05% of H-L-Dpr-L-Ala-L-Ala-L-His-OH through an olfactory test (“sniff test”) conducted by a panel of 3 independent experts.
We prepared a solution of 2-nonenal at 0.00089% in acetonitrile to which was added an equal volume of phosphate buffer 10 mM pH 7-7.5 or H-L-Dpr-L-Ala-L-Ala-L-His-OH to 0.05% in phosphate buffer 10 mM pH 7-7.5. We evaluated the odor intensity given off at time zero and 24 h after creating the mixture of aldehyde and peptide, performing the measurements in a room heated to 24° C. and with controlled humidity at 60% and statistically analyzed the values obtained using the Wilcoxon Matched Paired test.

human keratinocytes = assay: Photoprotection efficiency in cultured human keratinocytes (solar simulation lamp, Neutral Red viability); assay type: cell-based; settings: 1 mg/ml peptide, viability compared with irradiated and non-irradiated control cells
Procedure: Testing the photoprotection efficiency of H-L-Dpr-D-Ala-L-Pro-L-His-OH, H-L-Dpr-D-Ala-L-Ala-L-His-OH and H-L-Dp- L-Ala-L-Pro-L-His-OH in cultured human keratinocytes.
Human keratinocytes were maintained in culture for 24 h on 96 well plates to form monolayers and the cells were pre-incubated in the dark with 1 mg/ml of H-L-Dpr-D-Ala-L-Pro-L-His-OH, H-L-Dpr-D-Ala-L-Ala-L-His-OH, H-L-Dpr-L-Ala-L-Pro-L-His-OH or phosphate buffered saline (control) for one hour at 37° C. and humidified air with 5% CO2. Subsequently, cells were irradiated with a solar simulation lamp (with an energy of 37 J/cm^2 at room temperature for 150 min in the case of H-L-Dpr-D-Ala-L-Pro-L-His-OH). A control plate was kept in the dark during the same time at room temperature. After the period of irradiation, the cell medium was replaced by a fresh medium and the cells were incubated for an additional 24 h.
Cell viability was determined by the Neutral Red dye, measuring the absorbance at 540 nm in a spectrophotometer.
The photoprotection efficiency was determined by comparing the viability obtained in cells treated with H-L-Dpr-D-Ala-L-Pro-L-His-OH, H-L-Dpr-D-Ala-L-Ala-L-His-OH or H-L-Dpr-L-Ala-L-Pro-L-His-OH on the response of irradiated and non-irradiated control cells.

[4] = system: Primary cultures of human melanocytes; assay: Protective capacity against DNA degradation (UVA, alkaline comet assay); assay type: cell-based; settings: 1.0 μg/mL for 2 h at 37° C., then UVA 1.0 J/cm^2, alkaline comet assay
Procedure: Test of the Protective Capacity of DNA Degradation
Primary cultures of human melanocytes (10^5 cells/plate) were treated with 1.0 μg/mL of H-L-Dpr-D-Ala-L-Pro-L-His-OH for 2 h at 37° C. Subsequently, the cultures were irradiated with UVA at 1.0 J/cm^2 for no longer than 3min at 4° C. and the extent of the damage induced to DNA was determined by alkaline comet assay [De Meo M., Laget M., Castegnaro M. and Dumenil G. (1991) “Genotoxic activity of potassium permanganate in acidic solutions” Mutat. Res 260:295-306].

[5] = system: Primary cultures of human fibroblasts; assay: Repair capacity of DNA degradation (UVB, alkaline comet assay); assay type: cell-based; settings: UVB 0.4 J/cm^2 30 s, versus intrinsic repair efficiency of the cells
Excerpt: Testing the Repair Capacity of DNA Degradation
Primary cultures of human fibroblasts (10^5 cells/plate) were irradiated to 0.4 J/cm^2 UVB for 30 seconds. […]

| Compound | Scavenging % of NE aldehyde [1] | Scavenging % of HNE aldehyde [2] | also measured |
| --- | --- | --- | --- |
| H-L-Dpr-L-Ala-L-Glu-L-His-OH | 75.6% |  |  |
| NCCCC[C@H](NC(=O)[C@H](Cc1c[nH]cn1)NC(=O)CN)C(=O)O [GHK, glycyl-histidyl-lysine, reference compound] (H-Gly-His-Lys-OH) | 24.7% | 82.1% |  |
| H-L-Dpr-L-Ala-L-Asn-L-His-OH | 73.1% |  |  |
| H-L-Dpr-L-Ala-L-Asn-L-His-NH2 | 95.3% |  |  |
| H-L-Dpr-D-Ala-L-Glu-L-His-OH | 93.2% |  |  |
| H-L-Dpr-L-Ala-L-Glu-L-His-NH2 | 92.6% |  |  |
| H-L-Dpr-L-Ala-L-Pro-L-His-NH2 | 88.7% | 96.3% |  |
| NCCC(=O)N[C@@H](Cc1cnc[nH]1)C(=O)O [Carnosine, carnosine, reference compound] | 70.3% | 89.4% |  |
| H-L-Dpr-L-Ala-L-Ala-L-His-NH2 | 94.1% | 96.0% |  |
| H-L-Dpr-L-Ala-L-Ala-L-His-OH | 74.6% |  | reduction of the odor given off by 2-nonenal [3]: 15.6% |
| H-L-Dpr-L-Ala-D-Asp-L-His-OH | 83.1% | 94.1% |  |
| H-L-Dpr-D-Ala-L-Pro-L-His-NH2 | 98.1% | 98.3% |  |
| H-L-Dpr-D-AIa-L-Asn-L-His-NH2 | 98.9% |  |  |
| C[C@@H](NC(=O)[C@@H](N)CN)C(=O)N1CCC[C@H]1C(=O)N[C@@H](Cc1c[nH]cn1)C(=O)O [H-L-Dpr-D-Ala-L-Pro-L-His-OH] (H-[Dap][dA]PH-OH) | 97.0% | 98.0% | PHOTOPROTECTION EFFICIENCY (human keratinocytes): 92.0%; PROTECTIVE EFFICIENCY against DNA degradation [4]: 36.1%; REPAIR EFFICIENCY of DNA degradation ([5]; then 0.25 μg/mL for 3 h at 37° C.): 120%; REPAIR EFFICIENCY of DNA degradation ([5]; then 0.5 μg/mL for 3 h at 37° C.): 170% |
| H-L-Dpr-D-Ala-L-Glu-L-His-NH2 | 95.2% | 97.7% |  |
| H-L-Dpr-L-Ala-L-Asp-L-His-NH2 | 94.5% | 97.5% |  |
| H-L-Dpr-D-Ala-L-Asp-L-His-OH | 95.4% | 98.8% |  |
| H-L-Dpr-L-Ala-L-Asp-D-His-OH | 66.5% | 86.3% |  |
| C[C@H](NC(=O)[C@@H](N)CN)C(=O)N1CCC[C@H]1C(=O)N[C@@H](Cc1c[nH]cn1)C(=O)O [H-L-Dpr-L-Ala-L-Pro-L-His-OH] (H-[Dap]APH-OH) | 76.7% | 93.9% | PHOTOPROTECTION EFFICIENCY (human keratinocytes): 56.8% |
| H-L-Dpr-L-Ala-L-Asp-L-His-OH |  | 97.6% |  |
| H-L-Dpr-D-Ala-L-Ala-L-His-NH2 | 98.2% | 97.7% |  |
